Consider one molecule from PMC10747822 (Pharmaceutics, 2023).

Where a SMILES comes first, the peptide text is derived from it. [ ]: non-standard residue; d: D form. The star is where a group is joined. NH(4-amidinobenzyl) = N=C(N)c1ccc(CN*)cc1

Data set [1] is described as follows: Stability in human Li-heparin plasma. The data set is classed as in vitro ADME. The following applies: pooled human Li-heparin plasma, over at least 2 h; 1000 ng/mL, room temperature; UPLC-MS/MS. The protocol:
To investigate peptide stability, minimally diluted plasma or blood samples were generated through the addition of 10 µL of a spiking solution (50,000 ng/mL) to 490 µL of the pertinent biological matrix, resulting in a sample concentration of 1000 ng/mL. Samples (withdrawal of duplicates of 20 µL) were measured immediately after preparation and again after 1 and 2 h. Stability was evaluated via the comparison of peak area ratios of analyte and IS.
(§1) Because an isotopically labeled analog of Ac-[D-Leu]LLLRVK-amba was used as IS, potential variations in (negligible) matrix effects can be efficiently balanced by the IS due to its identical physicochemical characteristics. As a consequence, whole blood from other species is appropriate for calibration and QC preparation. Therefore, whole blood from human donors was used for these purposes, which also helps to reduce animal sacrifice.

The nature of data set [2]: Metabolite identification / degradation in mouse plasma by HRMS. The class given is in vitro ADME. Particulars: minimally diluted mouse plasma. The protocol: Metabolite identification experiments were performed in minimally diluted mouse plasma at a Ac-[D-Leu]LLLRVK-amba concentration of 20 µg/mL. Minimally diluted plasma samples were incubated at room temperature and analyzed after 0, 0.5, 4, and 16 h. Samples were depleted from proteins via precipitation with a 2-fold excess of ACN + 0.1% FA and diluted with one equivalent of water + 0.1% FA for direct infusion onto the mass spectrometer.
High-resolution mass spectrometric (HRMS) determinations for the investigation of Ac-[D-Leu]LLLRVK-amba metabolism/degradation in plasma were performed on a Xevo G2-XS QTof (Waters, Milford, MA, USA) equipped with a heated Z-spray ESI source. Measurements were performed via direct infusion using the integrated infusion pump with positive ion sensitivity mode.

Data set [3] is described as follows: Freeze-and-thaw stability in whole blood QC samples. The data set is classed as in vitro ADME, human. The following applies: for freeze-and-thaw stability, Accuracy [%]: one cycle. How it is done:
Blood samples for calibration and QC purposes were generated through the addition of 25 µL of the pertinent spike solution to 20 µL of blank blood and the subsequent addition of 25 µL of IS solution. Calibration samples were produced at 10, 30, 100, 300, 1000, 3000, and 10,000 ng/mL, and QC samples were produced at concentrations of 10, 30, 3750, and 7500 ng/mL. For study sample processing, 20 µL of each sample was added to 25 µL of IS solution, and 25 µL of ACN/H2O 1/1 + 0.1% FA was added for volume compensation to ensure that sample preparation matches that of study blood samples. For stability reasons, each sample was immediately depleted from proteins by adding 150 µL ACN including 0.1% FA. Samples were processed individually and kept frozen until processing. Subsequently, samples were centrifuged at 13,200× g for 5 min. From the extracts, 10 µL was transferred to 400 µL of ACN/H2O 1/19 + 0.1% FA in wells of a 96-well collection plate (Waters, Milford, MA, USA).
The applicable recommendations for bioanalytical method validation of the FDA and EMA were applied to the validation of the assay. Accuracy was calculated as the percentage of the ratio of the mean of the determined concentrations and the nominal concentration. The acceptance limit is 100 ± 15%, with the exception of the LLOQ where it is 100 ± 20% Q. The assay precision was calculated as the coefficient of variation of the determined sample concentrations. It needs to be ≤15% in general and ≤20% at the LLOQ. Each validation run included blank and IS controls, seven calibration samples in duplicate determination, and four QC samples (LLOQ and low, mid, and high QC concentrations) in six-fold determination. Recovery of the whole blood extraction process was calculated from peak areas of QC samples divided by the peak areas obtained from blank blood spiked with the respective amount after processing. Assessment of matrix effects was performed by the ratio of peak areas of blank blood samples spiked after processing with the peak areas of UPLC solvent containing an identical amount of analyte. Stability of the analyte was investigated in freeze-and-thaw cycles separated by at least 24 h and at room temperature for testing bench-top stability.
as §1

The next data set is described as follows: Stock solution stability. Particulars: 2 weeks; solutions in ACN/H2O (1/1, v/v) + 0.1% FA in glass, kept at 4 °C. The class given is physicochemical. The protocol: Calibration and quality control (QC) spike solutions were prepared in ACN/H2O (1/1, v/v) + 0.1% FA in glass vials. These were produced from stock solution generated from accurately dissolved independent weighings into 2 mL volumetric flasks. Calibration solutions were prepared at concentrations of 8, 24, 80, 240, 800, […], and 8000 ng/mL. QC solutions were prepared at concentrations of 8, 24, 3000, and 6000 ng/mL. The IS spike solution was prepared accordingly at a concentration of 400 ng/mL. Solutions were kept at 4 °C.
Extraction via protein precipitation combined with UPLC-MS/MS quantification for Ac-[D-Leu]LLLRVK-amba complied with the FDA and EMA recommendations for accuracy, precision, linearity, matrix effects, and recovery. Within the calibrated range (10–10,000 ng/mL), correlation coefficients (r^2) of >0.99 were obtained using linear regression and 1/x^2 weighting (Table S3). Table 1 gives an overview of the intraday and interday accuracies and precision values during validation, which were well within the required limits. The observed carry-over after the highest calibration sample was 0.015% and within the required limits of less than 20% of the peak area of the LLOQ. Stock solution stability was established for 2 weeks, which was sufficient to cover sample analyses with an accuracy of 93.7% of the peak areas of the stored solutions compared to initial values.

For data set [4] the following is noted: 37 °C, 500 µg/mL; cited from earlier work. How it is done: However, these were conducted at a substantially higher concentration of Ac-[D-Leu]LLLRVK-amba of 500 µg/mL compared to the 1 µg/mL investigated here. […] Such lower stability in plasma compared to whole blood was already reported for several peptides.

Turning to `CC(=O)N[C@H](CC(C)C)C(=O)N[C@@H](CC(C)C)C(=O)N[C@@H](CC(C)C)C(=O)N[C@@H](CC(C)C)C(=O)N[C@@H](CCCNC(=N)N)C(=O)N[C@H](C(=O)N[C@@H](CCCCN)C(=O)NCc1ccc(C(=N)N)cc1)C(C)C` [Ac-[D-Leu]LLLRVK-amba] (Ac-[dL]LLLRVK-{NH(4-amidinobenzyl)}), in data set [1], the “degradation in human Li-heparin plasma” value was “no detectable degradation”. In data set [2] (20 µg/mL, room temperature over 16 h, HRMS, neither peptide bond hydrolysis nor oxidation products), the “metabolites / degradation products in mouse plasma” value is reported as “no traces of metabolites were observed”. The “stability in mouse plasma at 20 µg/mL” value in data set [2] (room temperature, 0, 0.5, 4 and 16 h, HRMS direct infusion (m/z 50-1200)) is on record as “several hours”. The “freeze-and-thaw stability, accuracy” value in data set [3] (whole blood QC samples, one freeze-and-thaw cycle, range over QC levels, corresponding precision ≤14.0%, UPLC-MS/MS) is reported as 91.5 to 98.3%. Besides, the “deviation after further freeze-and-thaw cycles” value in data set [3] (whole blood, more than one freeze-and-thaw cycle, cycles separated by at least 24 h) is greater than 15%. Moreover, the “freeze-and-thaw stability, Accuracy [%]” value in data set [3] (whole blood, QC A, UPLC-MS/MS) was 91.5%; in data set [3] (whole blood, QC B, UPLC-MS/MS) it was 91.6%; in data set [3] (whole blood, QC C, UPLC-MS/MS), 98.3%. In addition, the “stock solution stability, accuracy of peak areas of stored solutions compared to initial values” in “Stock solution stability” was 93.7%. The “half-life in Na-heparin mouse plasma” value in data set [4] is 18 h.
